Assay results reported in the supplement of paper PMC10307832.

Experiments:
Test in all cases: relative viability (nuclei count vs DMSO), 5 days (fraction); higher = more cells survive
LCLC-97TM1 = test system: LCLC-97TM1
Method in brief: (§1)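 Lung cancer cell lines in 1536-well plates got either a single drug or a fixed anchor-drug dose together with five library-drug doses (not always all listed) in √10 steps, by pin tool, on the day after seeding. Nuclei were counted after 5 days, and relative viability is the treated-to-vehicle ratio of nuclei counts. Values are medians of duplicate plates.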

H3255 = test system: H3255
Method in brief: as §1

NCI-H520 = test system: NCI-H520
Method in brief: as §1

NCI-H1666 = test system: NCI-H1666
Method in brief: as §1

NCI-H647 = test system: NCI-H647
Method in brief: as §1

RERF-LC-KJ = test system: RERF-LC-KJ
Method in brief: as §1

NCI-H2126 = test system: NCI-H2126
Method in brief: as §1

NCI-H1915 = test system: NCI-H1915
Method in brief: as §1

NCI-H23 = test system: NCI-H23
Method in brief: as §1

EPLC-272H = test system: EPLC-272H
Method in brief: as §1

NCI-H650 = test system: NCI-H650
Method in brief: as §1

NCI-H661 = test system: NCI-H661
Method in brief: as §1

NCI-H2347 = test system: NCI-H2347
Method in brief: as §1

LC-2-ad = test system: LC-2-ad
Method in brief: as §1

NCI-H2087 = test system: NCI-H2087
Method in brief: as §1

NCI-H2405 = test system: NCI-H2405
Method in brief: as §1

HCC-827 = test system: HCC-827
Method in brief: as §1

COR-L 105 = test system: COR-L 105
Method in brief: as §1

ChaGo-K-1 = test system: ChaGo-K-1
Method in brief: as §1

201T = test system: 201T
Method in brief: as §1

PC-14 = test system: PC-14
Method in brief: as §1

Question: What does the source list for `O=c1cc(N2CCOCC2)oc2c(-c3cccc4c3sc3ccccc34)cccc12` + CCNC(=O)c1noc(-c2cc(C(C)C)c(O)cc2O)c1-c1ccc(CN2CCOCC2)cc1 [Luminespib] (partner 0.01 µM)?
Answer: relative viability (LCLC-97TM1; first compound 0.01 µM): 0.621; relative viability (LCLC-97TM1; first compound 0.03162 µM): 0.796; relative viability (LCLC-97TM1; first compound 0.1 µM): 0.827; relative viability (LCLC-97TM1; first compound 0.3162 µM): 0.759; relative viability (LCLC-97TM1; first compound 1 µM): 0.728; relative viability (H3255; first compound 0.01 µM): 0.885; relative viability (H3255; first compound 0.03162 µM): 0.991; relative viability (H3255; first compound 0.1 µM): 0.948; relative viability (H3255; first compound 0.3162 µM): 0.909; relative viability (H3255; first compound 1 µM): 0.945; relative viability (NCI-H520; first compound 0.01 µM): 0.213; relative viability (NCI-H520; first compound 0.03162 µM): 0.285; relative viability (NCI-H520; first compound 0.1 µM): 0.24; relative viability (NCI-H520; first compound 0.3162 µM): 0.209; relative viability (NCI-H520; first compound 1 µM): 0.249; relative viability (NCI-H1666; first compound 0.01 µM): 0.889; relative viability (NCI-H1666; first compound 0.03162 µM): 1.01; relative viability (NCI-H1666; first compound 0.1 µM): 0.995; relative viability (NCI-H1666; first compound 0.3162 µM): 0.969; relative viability (NCI-H1666; first compound 1 µM): 0.93; relative viability (NCI-H647; first compound 0.01 µM): 0.132; relative viability (NCI-H647; first compound 0.03162 µM): 0.115; relative viability (NCI-H647; first compound 0.1 µM): 0.101; relative viability (NCI-H647; first compound 0.3162 µM): 0.259; relative viability (NCI-H647; first compound 1 µM): 0.209; relative viability (RERF-LC-KJ; first compound 0.01 µM): 1.31; relative viability (RERF-LC-KJ; first compound 0.03162 µM): 1.22; relative viability (RERF-LC-KJ; first compound 0.1 µM): 1.48; relative viability (RERF-LC-KJ; first compound 0.3162 µM): 1.07; relative viability (RERF-LC-KJ; first compound 1 µM): 1.21; relative viability (NCI-H2126; first compound 0.01 µM): 0.923; relative viability (NCI-H2126; first compound 0.03162 µM): 0.893; relative viability (NCI-H2126; first compound 0.1 µM): 0.922; relative viability (NCI-H2126; first compound 0.3162 µM): 0.93; relative viability (NCI-H2126; first compound 1 µM): 0.756; relative viability (NCI-H1915; first compound 0.01 µM): 0.875; relative viability (NCI-H1915; first compound 0.03162 µM): 0.831; relative viability (NCI-H1915; first compound 0.1 µM): 0.807; relative viability (NCI-H1915; first compound 0.3162 µM): 0.791; relative viability (NCI-H1915; first compound 1 µM): 0.855; relative viability (NCI-H23; first compound 0.01 µM): 0.194; relative viability (NCI-H23; first compound 0.03162 µM): 0.194; relative viability (NCI-H23; first compound 0.3162 µM): 0.239; relative viability (NCI-H23; first compound 1 µM): 0.206; relative viability (EPLC-272H; first compound 0.01 µM): 0.244; relative viability (EPLC-272H; first compound 0.03162 µM): 0.449; relative viability (EPLC-272H; first compound 0.3162 µM): 0.19; relative viability (EPLC-272H; first compound 1 µM): 0.281; relative viability (NCI-H650; first compound 0.03162 µM): 0.846; relative viability (NCI-H650; first compound 0.1 µM): 0.638; relative viability (NCI-H650; first compound 0.3162 µM): 0.917; relative viability (NCI-H650; first compound 1 µM): 0.813; relative viability (NCI-H661; first compound 0.01 µM): 0.86; relative viability (NCI-H661; first compound 0.03162 µM): 0.952; relative viability (NCI-H661; first compound 0.1 µM): 0.948; relative viability (NCI-H661; first compound 0.3162 µM): 0.943; relative viability (NCI-H661; first compound 1 µM): 0.888; relative viability (NCI-H2347; first compound 0.01 µM): 0.571; relative viability (NCI-H2347; first compound 0.03162 µM): 0.383; relative viability (NCI-H2347; first compound 0.1 µM): 0.641; relative viability (NCI-H2347; first compound 0.3162 µM): 0.409; relative viability (NCI-H2347; first compound 1 µM): 0.323; relative viability (LC-2-ad; first compound 0.01 µM): 1.04; relative viability (LC-2-ad; first compound 0.03162 µM): 1.12; relative viability (LC-2-ad; first compound 0.1 µM): 0.978; relative viability (LC-2-ad; first compound 0.3162 µM): 1.03; relative viability (LC-2-ad; first compound 1 µM): 1.13; relative viability (NCI-H2087; first compound 0.01 µM): 0.148; relative viability (NCI-H2087; first compound 0.03162 µM): 0.146; relative viability (NCI-H2087; first compound 0.1 µM): 0.173; relative viability (NCI-H2087; first compound 0.3162 µM): 0.237; relative viability (NCI-H2087; first compound 1 µM): 0.169; relative viability (NCI-H2405; first compound 0.01 µM): 0.712; relative viability (NCI-H2405; first compound 0.03162 µM): 0.571; relative viability (NCI-H2405; first compound 0.1 µM): 0.722; relative viability (NCI-H2405; first compound 0.3162 µM): 0.717; relative viability (NCI-H2405; first compound 1 µM): 0.681; relative viability (HCC-827; first compound 0.01 µM): 0.642; relative viability (HCC-827; first compound 0.03162 µM): 0.541; relative viability (HCC-827; first compound 0.1 µM): 0.626; relative viability (HCC-827; first compound 0.3162 µM): 0.629; relative viability (HCC-827; first compound 1 µM): 0.71; relative viability (COR-L 105; first compound 0.01 µM): 0.738; relative viability (COR-L 105; first compound 0.03162 µM): 0.739; relative viability (COR-L 105; first compound 0.1 µM): 0.758; relative viability (COR-L 105; first compound 0.3162 µM): 0.754; relative viability (COR-L 105; first compound 1 µM): 0.603; relative viability (ChaGo-K-1; first compound 0.01 µM): 0.689; relative viability (ChaGo-K-1; first compound 0.03162 µM): 0.682; relative viability (ChaGo-K-1; first compound 0.1 µM): 0.714; relative viability (ChaGo-K-1; first compound 0.3162 µM): 0.582; relative viability (ChaGo-K-1; first compound 1 µM): 0.689; relative viability (201T; first compound 0.01 µM): 0.961; relative viability (201T; first compound 0.03162 µM): 1.1; relative viability (201T; first compound 0.1 µM): 1.03; relative viability (201T; first compound 0.3162 µM): 1.02; relative viability (201T; first compound 1 µM): 0.996; relative viability (PC-14; first compound 0.03162 µM): 0.151; relative viability (PC-14; first compound 0.3162 µM): 0.197; relative viability (PC-14; first compound 1 µM): 0.135
